From patent US20230107216A1, “PANTETHEINE DERIVATIVES AND USES THEREOF” (Comet Therapeutics, Inc., priority 2018, published 2023)
Like-named read-outs stand apart in the source and are kept apart here.

Key:
[1] = tested on: Peripheral blood mononuclear cells co-cultured with B-cells (BT system)
[2] = tested on: Coronary artery smooth muscle cells (CASM3C system); experiment: BioMAP CASM3C system (IL-1β, TNFα, IFNγ); assay type: cell-based, human; conditions: for inhibition at 10 µM: Homo sapiens, 24 h, read-out: % decrease in Thrombomodulin
[3] = tested on: Dermal fibroblasts (HDF3CGF system); experiment: BioMAP HDF3CGF system (IL-1β, TNFα, IFNγ, EGF, bFGF, PDGF-BB); assay type: cell-based, human; conditions: for activation at 10 µM: 72 h, read-out: % increase in 72 Hour Proliferation
[4] = tested on: Keratinocytes co-cultured with dermal fibroblast (KF3CT system); experiment: BioMAP KF3CT system (IL-1β, TNFα, IFNγ, TGFβ); assay type: cell-based, human; conditions: for % increase in MCP-1: procedure of Example 834
Experimental: The BioMAP platform (BioMAP® Diversity PLUS® Panel from Eurofins) is an in vitro phenotypic profiling technology that screened the compounds of the present disclosure (hereafter indicated as test agents) in human primary cell-based systems modelling complex tissue and disease states. The BioMAP assays were performed using the Eurofin's BioMAP Technology Platform as (see references 1 to 13 in the example 824 section) to model different diseases on primary cell-based model systems. These systems consisted of either single primary cell types or co-culture cells. Adherent cell types were cultured or co-cultured in 96 or 384-well plates until confluence followed by the addition of compounds prepared in DMSO at a final concentration of ≤0.1%. In each cell-based system, primary cells from heathy donors (2-6 donors) were pooled and treated with compounds at 1 and 10 μM dose 1h prior to stimulation and remain in culture as indicated in Example 825, Example 826, Example 827, Example 828, Example 829, Example 830, Example 831, Example 832, Example 833, Example 834, Example 835, Example 836 and Example 837. For on the BioMAP® Diversity PLUS® Panel, please see the following references, which are incorporate herein.
Following the general procedure as described in Example 824, Keratinocytes were co-cultured with dermal fibroblast (KF3CT system) and treated with IL-1β, TNFα, IFNγ and TGFβ for 24h in the presence or absence of the compounds to model psoriasis, dermatitis and skin biology. Biomarkers read out were; MCP-1, ICAM-1, IP-10, IL-8, MIG, IL-1α, MMP-9, PAI-1, SRB, TIMP-2, uPA.

[5] = tested on: primary culture of rat embryo mesencephalic cells (microglia, astrocytes and neurons) exposed to LPS; experiment: Neuroprotective effect on damage induced by LPS on culture of mesencephalic neurons (NO, TNF-α, IL-1β, TH positive neurons); assay type: cell-based; conditions: after 5 days of LPS exposure; for inhibition at 50 µM / inhibition at 10 µM: Rattus norvegicus, Neuron, 120 h, read-out: % reversion of TH positive neurons
Procedure, shortened: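 E15 Wistar rat ventral mesencephalic cultures, day 7, pretreated 1 h with compound (0.1% DMSO) before LPS 10 ng/ml. NO (Griess) at 24 h and 5 days and IL-1β/TNF-α (ELISA) at 24 h, expressed vs LPS control = 100%; TH+ neurons counted by imaging at 5 days, vs non-intoxicated = 100%.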

[6] = 10 uM, procedure of Example 829
[7] = 10 uM, procedure of Example 832
[8] = Homo sapiens, Fibroblast, 10 uM
[9] = 10 uM, procedure of Example 833
[10] = Homo sapiens, Fibroblast, 24 h, 10 uM, read-out: % decrease in Collagen III

## COC(=O)CCC(=O)SCCNC(=O)CCNC(=O)[C@H](OC(=O)CNC(C)=O)C(C)(C)CO [Compound 1298, methyl 4-[(2-[3-[(2R)-2-[(2-acetamidoacetyl)oxy]-4-hydroxy-3,3-dimethylbutanamido]propanamido]ethyl)sulfanyl]-4-oxobutanoate]
[1]; 1 uM, procedure of Example 829
  % increase in B-cell Proliferation: ≥10%
  % increase in sIL-17: ≥20%
[1]; [6]
  % decrease in sTNFα: ≥10%
[2]; 1 uM
  % decrease in uPAR: ≥10%
[2]; 1 uM, procedure of Example 832
  % decrease in LDLR: ≥10%
  % decrease in VCAM-1: ≥10%
[2]; [7]
  % increase in Proliferation: ≥10%
[2]; 10 uM
  inhibition at 10 µM: ≥ 20%
[3]; 1 uM
  % decrease in TIMP-1: ≥10%
  % decrease in TIMP-2: ≥10%

## C[C@@H](O)CC(=O)CC(=O)SCCNC(=O)CCNC(=O)[C@H](O)C(C)(C)CO [Compound 42, (2R)-2,4-dihydroxy-N-[2-[(2-[[(5R)-5-hydroxy-3-oxohexanoyl]sulfanyl]ethyl)carbamoyl]ethyl]-3,3-dimethylbutanamide]
[1]; [6]
  % increase in sIL-2: ≥10%
  % increase in sTNFα: ≥10%
[2]; [7]
  % increase in M-CSF: ≥10%
  % increase in Proliferation: ≥10%
[4]; 10 uM
  % increase in MCP-1: ≥10%
[5]; 50 uM
  % decrease in NO release relative to LPS alone: ≥5%
[5]; 50 uM, list at threshold 15%
  inhibition at 50 µM: ≥ 15%
[5]; 50 uM, list at threshold 50%
  inhibition at 50 µM: ≥ 50%

## CC(C)(CO)[C@@H](O)C(=O)NCCC(=O)NCCSC(CC(=O)OCC[N+](C)(C)C)C(=O)O (stereo partly drawn) [Compound 51, [2-([3-carboxy-3-[(2-[3-[(2R)-2,4-dihydroxy-3,3-dimethylbutanamido]propanamido]ethyl)sulfanyl]propanoyl]oxy)ethyl]trimethylazanium]
[5]; 10 uM
  % decrease in NO release relative to LPS alone: ≥5%
[5]; 50 uM, list at threshold 15%
  inhibition at 50 µM: ≥ 15%
[5]; 50 uM, list at threshold 50%
  inhibition at 50 µM: ≥ 50%

## COC(=O)CCC(=O)SCCNC(=O)CCNC(=O)[C@H](OC(=O)CN)C(C)(C)CO [Compound 1294, methyl 4-[(2-[3-[(2R)-2-[(2-aminoacetyl)oxy]-4-hydroxy-3,3-dimethylbutanamido]propanamido]ethyl)sulfanyl]-4-oxobutanoate]
[1]; 1 uM, procedure of Example 829
  % increase in B-cell Proliferation: ≥10%
[1]; [6]
  % decrease in sIL-2: ≥10%
[2]; 1 uM
  % decrease in Tissue Factor: ≥10%
  % decrease in uPAR: ≥10%
[2]; 1 uM, procedure of Example 832
  % decrease in M-CSF: ≥10%
  % decrease in VCAM-1: ≥10%
[2]; 10 uM
  % decrease in HLA-DR: ≥10%
  inhibition at 10 µM: ≥ 20%
[3]; Homo sapiens, Fibroblast, 24 h, 1 uM, read-out: % decrease in Collagen III
  inhibition at 1 µM: ≥ 10%
[3]; [8]
  activation at 10 µM: ≥ 20%
[4]; 1 uM
  % decrease in MMP-9: ≥10%
[4]; 10 uM
  % increase in IL-1α: ≥10%

## CC(C)(COC(=O)OCC[N+](C)(C)C)[C@@H](O)C(=O)NCCC(=O)NCCSC(=O)CCC(=O)O [Compound 116, [2-([[(3R)-3-[[2-([2-[(3-carboxypropanoyl)sulfanyl]ethyl]carbamoyl)ethyl]carbamoyl]-3-hydroxy-2,2-dimethylpropoxy]carbonyl]oxy)ethyl]trimethylazanium]
[1]; 1 uM, procedure of Example 829
  % decrease in B-cell proliferation: ≥10%
[1]; [6]
  % decrease in sTNFα: ≥10%
[2]; 1 uM, procedure of Example 832
  % decrease in Proliferation: ≥10%
[3]; [9]
  % decrease in Collagen I: ≥10%
[5]; 10 uM, list at threshold 15%
  inhibition at 10 µM: ≥ 15%

## CC(=O)SCCNC(=O)CCNC(=O)[C@H](O)C(C)(C)COC(=O)[C@@H](N)Cc1ccc(O)c(O)c1 [Compound 498, (3R)-3-[(2-[[2-(acetylsulfanyl)ethyl]carbamoyl]ethyl)carbamoyl]-3-hydroxy-2,2-dimethylpropyl (2S)-2-amino-3-(3,4-dihydroxyphenyl)propanoate]
[1]; 1 uM, procedure of Example 829
  % increase in sTNFα: ≥10%
[1]; [6]
  % increase in sIL-2: ≥20%
[2]; 1 uM, procedure of Example 832
  % increase in IL-6: ≥10%
[3]; 1 uM
  % decrease in TIMP-2: ≥10%
[3]; 10 uM
  % increase in M-CSF: ≥10%
  % increase in SRB: ≥10%
[3]; [9]
  % decrease in Collagen I: ≥10%
[3]; [10]
  inhibition at 10 µM: ≥ 10%
[4]; 1 uM
  % increase in MCP-1: ≥10%
[4]; 10 uM
  % increase in TIMP-2: ≥10%
[5]; 50 uM, list at threshold 15%
  inhibition at 50 µM: ≥ 15%

## CC(C)(CO)[C@@H](O)C(=O)NCCC(=O)NCCSC(=O)[C@@H](N)Cc1ccc(O)c(O)c1 [Compound 371, (2R)—N-[2-[(2-[[(2S)-2-amino-3-(3,4-dihydroxyphenyl)propanoyl]sulfanyl]ethyl)carbamoyl]ethyl]-2,4-dihydroxy-3,3-dimethylbutanamide]
[1]; 1 uM, procedure of Example 829
  % increase in sIL-2: ≥20%
[1]; human, 72 h, 10 µM
  % increase in PBMC cytotoxicity: ≥10%
[3]; 10 uM
  % increase in PAI-I: ≥10%
[3]; [9]
  % decrease in Collagen I: ≥10%
[3]; [10]
  inhibition at 10 µM: ≥ 10%
[4]; 1 uM
  % increase in MMP-9: ≥10%
  % increase in MCP-1: ≥10%

## CC(=O)OCC(C)(C)[C@@H](OC(C)=O)C(=O)NCCC(=O)NCCSC(C)=O [Compound 1264, (1R)-3-(acetyloxy)-1-[(2-[[2-(acetylsulfanyl)ethyl]carbamoyl]ethyl)carbamoyl]-2,2-dimethylpropyl acetate]
[1]; [6]
  % decrease in sTNFα: ≥10%
  % increase in B-cell Proliferation: ≥10%
[2]; 1 uM, procedure of Example 832
  % increase in IL-6: ≥10%
[3]; 1 uM
  % increase in PAI-I: ≥10%
[3]; 10 uM
  % increase in TIMP-2: ≥10%
[3]; [8]
  activation at 10 µM: ≥ 10%
[4]; 1 uM
  % decrease in IL-1a: ≥10%
  % increase in MCP-1: ≥10%

## COC(=O)CC(SCCNC(=O)CCNC(=O)[C@H](O)C(C)(C)COC(C)=O)C(=O)OC (stereo partly drawn) [Compound 149, 1,4-dimethyl 2-[(2-[3-[(2R)-4-(acetyloxy)-2-hydroxy-3,3-dimethylbutanamido]propanamido]ethyl)sulfanyl]butanedioate]
[1]; [6]
  % increase in sIL-2: ≥20%
  % increase in sTNFα: ≥10%
[2]; [7]
  % increase in IL-6: ≥10%
[2]; 10 uM
  inhibition at 10 µM: ≥ 10%
[3]; 1 uM, procedure of Example 833
  % increase in Collagen I: ≥10%

## COC(=O)CC(C(C)=O)C(=O)SCCNC(=O)CCNC(=O)[C@H](O)C(C)(C)CO (stereo partly drawn) [Compound 410]
[5]; 50 uM
  % decrease in NO release relative to LPS alone: ≥10%
[5]; 50 uM, list at threshold 15%
  inhibition at 50 µM: ≥ 15%

## CC(=O)SCCNC(=O)CCNC(=O)[C@H](O)C(C)(C)COC(=O)[C@H](C)N [Compound 502, (3R)-3-[(2-[[2-(acetylsulfanyl)ethyl]carbamoyl]ethyl)carbamoyl]-3-hydroxy-2,2-dimethylpropyl (2S)-2-aminopropanoate]
[2]; 10 uM
  inhibition at 10 µM: ≥ 10%
[3]; 1 uM
  % increase in SRB: ≥10%

## C[C@@H](O)CC(=O)SCCNC(=O)CCNC(=O)[C@H](O)C(C)(C)CO [Compound 38, S-2-{3-[(R)-2,4-dihydroxy-3,3-dimethylbutyrylamino]propionylamino} ethyl (R)-3-hydroxybutanethioate]
[5]; 10 uM, list at threshold 15%
  inhibition at 10 µM: ≥ 15%

## CCCCCCC(=O)SCCNC(=O)CCNC(=O)[C@H](O)C(C)(C)CO [Compound 372, (2R)—N-(2-[[2-(heptanoylsulfanyl)ethyl]carbamoyl]ethyl)-2,4-dihydroxy-3,3-dimethylbutanamide]
[1]; 1 uM, procedure of Example 829
  % increase in sIL-2: ≥10%
[1]; [6]
  % increase in sIL-17: ≥20%
[2]; 1 uM, procedure of Example 832
  % decrease in LDLR: ≥10%
  % decrease in VCAM-1: ≥10%
[2]; 10 uM
  inhibition at 10 µM: ≥ 10%
[3]; 10 uM
  % increase in PAI-I: ≥10%
[3]; [10]
  inhibition at 10 µM: ≥ 10%

## COC(=O)CCC(=O)SCCNC(=O)CCNC(=O)[C@H](O)C(C)(C)COC(C)=O [Compound 138]
[1]; 1 uM, procedure of Example 829
  % decrease in sIL-2: ≥10%
  % decrease in sTNFα: ≥20%
[2]; 10 uM
  inhibition at 10 µM: ≥ 10%
[3]; 1 uM, procedure of Example 833
  % decrease in Collagen I: ≥10%
[4]; 10 uM
  % increase in SRB: ≥10%
[5]; 50 uM, list at threshold 15%
  inhibition at 50 µM: ≥ 15%
[5]; 50 uM, list at threshold 50%
  inhibition at 50 µM: ≥ 50%

## CC(=O)OCC(C)(C)[C@@H](O)C(=O)NCCC(=O)NCCSC(=O)CC(=O)CCC(=O)O [Compound 140, 6-[(2-[3-[(2R)-4-(acetyloxy)-2-hydroxy-3,3-dimethylbutanamido]propanamido]ethyl)sulfanyl]-4,6-dioxohexanoic acid]
[5]; 50 uM, list at threshold 15%
  inhibition at 50 µM: ≥ 15%
[5]; 50 uM, list at threshold 50%
  inhibition at 50 µM: ≥ 50%
